# Laboratory results published in US20170000908A1, “A MICELLAR PARTICLE” (AGENCY FOR SCIENCE, TECHNOLOGY AND RESEARCH, priority 2013, published 2017).
# What was measured:
# [1] = Quantum yield measured against fluorescence standard solutions; type: physicochemical; conditions: dye in THF
# Protocol: Quantum yield was measured with respect to the fluorescence standard solution, namely fluorescein (Ethanol; QY=0.79), and rhodamine B (Ethanol; QY=0.49). Fluorescein was used as a reference for Coumarin545T@SiO2, whereas rhodamine B was used for DCJTB@SiO2. The procedures involved diluting the fluorescent silica nanocapsules and the fluorescence standard solution with their respective solvent to have the same absorbance at excitation wavelength (460 nm for fluorescein; 490 nm for rhodamine B). Quantum yields for fluorescent silica nanocapsules were measured by dividing, the integrated emission area of their fluorescent spectrum against that of fluorecein or rhodamine B in Ethanol. […] In addition, the lifetime of Coumarin545T@SiO2 was determined to be 3.38 ns, while the lifetime of coumarin545T in THF was determined to be 2.86 ns. Similarly, the lifetime of DCJTB@SiO2 was determined to be 3.40 ns, while the lifetime of DCJTB in THF was determined to be 2.50 ns.
# [2] = Photoluminescence lifetime by Time Correlated Single Photon Counting (TCSPC); type: physicochemical; conditions: dye in THF; excited at 405 nm
# Protocol: The photoluminescence lifetimes of the Coumarin545T@SiO2 and DCJTB@SiO2 samples were measured using a Time Correlated Single Photon Counting (TCSPC) module (PicoQuant PicoHarp 300 of PicoQuant of Berlin, Germany). The Coumarin545T@SiO2 and DCJTB@SiO2 samples were excited by using 405 nm line of a picosecond pulsed laser diode (PicoQuant PDL 800-B). The photoluminescence was dispersed through a monochromator (Acton SpectroPro 2300i) and detected with a micro channel plate photomultiplier tube (MCP-PMT) detector (Hamamatsu R3809U-50).
# FIG. 4 is a graph showing the time-resolved photoluminescence decay of Coumarin545T dissolved in THF and that when encapsulated inside the core of the nanocapsules. FIG. 5 is a graph showing the time-resolved photoluminescence decay of DCJTB dissolved in THF and that when encapsulated inside the core of the nanocapsules. […] Based on these figures, when compared to the photoluminescence behavior of the dye solutions (Coumarin545T or DCJTB) in their respective solvents, there is a significant red-shift in the emission peak for both of the silica nanocapsules, which should be ascribed to the π-π stacking of the dye molecules by encapsulation. The emission spectra of the nanocapsules are also broader than the dye solutions in their respective solvents. […]
# [3] = UV-Vis and photoluminescent spectra (emission peak, fwhm); type: physicochemical; conditions: dye in THF
# Text: The UV-Vis and photoluminescent spectra of Coumarin545T@SiO2 are shown in FIG. 2 while those of DCJTB@SiO2 are shown in FIG. 3.
# FIG. 4 is a graph showing the time-resolved photoluminescence decay of Coumarin545T dissolved in THF and that when encapsulated inside the core of the nanocapsules. FIG. 5 is a graph showing the time-resolved photoluminescence decay of DCJTB dissolved in THF and that when encapsulated inside the core of the nanocapsules. […] Based on these figures, when compared to the photoluminescence behavior of the dye solutions (Coumarin545T or DCJTB) in their respective solvents, there is a significant red-shift in the emission peak for both of the silica nanocapsules, which should be ascribed to the π-π stacking of the dye molecules by encapsulation. The emission spectra of the nanocapsules are also broader than the dye solutions in their respective solvents. The silica coating could lead to improvement in the photostability of the dye molecules by limiting their contact with the outside environment, especially soluble oxygen molecules.
# [4] = Ethanol; cited from earlier work
Quantum Yield (QY) [1],Fluorescence Lifetime (τ) [2] [ns],fwhm [3] [nm],λem [3] [nm],Structure (SMILES),Quantum yield (QY) of fluorescence standard solution [4]
0.99,2.86,35,504,CC1(C)CCN2CCC(C)(C)c3c2c1cc1cc(-c2nc4ccccc4s2)c(=O)oc31 [Coumarin 545T],
0.99,2.50,73,605,CC(C)(C)C1=CC(=C(C#N)C#N)C=C(/C=C/c2cc3c4c(c2)C(C)(C)CCN4CCC3(C)C)O1 [DCJTB],
,,,,CCN(CC)c1ccc2c(-c3ccccc3C(=O)O)c3ccc(=[N+](CC)CC)cc-3oc2c1.[Cl-] [rhodamine B],0.49
